How the values were obtained:
Assay in all cases: biochemical
SIK3 = target: T1, SIK3 (Homo sapiens, UniProt Q9Y2K2)
T1 construct: purchased SignalChem S12-11G-100
Description: (§1) The principle of the ^33P radioactive kinase assay consists in measuring the incorporated ^33P into the substrate AMARA peptide when phosphorylated by SIK1, SIK2 or SIK3 using [^33P]-g-ATP, which correlates with kinase activity.
(§2) 1% DMSO and 10 μM staurosporine final concentrations are used as negative and positive controls.
(§3) 11 μL of enzyme-substrate mixture is added on the assay plates. The reactions are started by adding 9 μL ATP mixture, consisting of non-labeled and ^33P-labeled ATP, on the assay plates.
(§4) The reactions are stopped by adding 25 μL phosphoric acid (150 mM) to the reactions.
(§5) After harvesting the kinase reactions, the filter plates are washed 6 times with phosphoric acid (75 mM). […] The top of the plates are sealed with TopSeal-A. Read-out is performed with a TopCount instrument (PerkinElmer Inc.).

SIK1 = target: T2, SIK1 (Homo sapiens, UniProt P57059); settings: 33P radioactive SIK kinase assay, AMARA peptide, 10 μM ATP; read-out: SIK1 IC50
T2 construct: purchased Carna Biosciences 02-131
Description: as §1, §2, §3, §4, §5

SIK2 = target: T3, SIK2 (Homo sapiens, UniProt Q9H0K1); settings: 33P radioactive SIK kinase assay, AMARA peptide, 10 μM ATP
T3 construct: purchased ThermoFisher Scientific PV4792
Description: as §1, §2, §3, §4, §5

T2 sequence (P57059 whole entry): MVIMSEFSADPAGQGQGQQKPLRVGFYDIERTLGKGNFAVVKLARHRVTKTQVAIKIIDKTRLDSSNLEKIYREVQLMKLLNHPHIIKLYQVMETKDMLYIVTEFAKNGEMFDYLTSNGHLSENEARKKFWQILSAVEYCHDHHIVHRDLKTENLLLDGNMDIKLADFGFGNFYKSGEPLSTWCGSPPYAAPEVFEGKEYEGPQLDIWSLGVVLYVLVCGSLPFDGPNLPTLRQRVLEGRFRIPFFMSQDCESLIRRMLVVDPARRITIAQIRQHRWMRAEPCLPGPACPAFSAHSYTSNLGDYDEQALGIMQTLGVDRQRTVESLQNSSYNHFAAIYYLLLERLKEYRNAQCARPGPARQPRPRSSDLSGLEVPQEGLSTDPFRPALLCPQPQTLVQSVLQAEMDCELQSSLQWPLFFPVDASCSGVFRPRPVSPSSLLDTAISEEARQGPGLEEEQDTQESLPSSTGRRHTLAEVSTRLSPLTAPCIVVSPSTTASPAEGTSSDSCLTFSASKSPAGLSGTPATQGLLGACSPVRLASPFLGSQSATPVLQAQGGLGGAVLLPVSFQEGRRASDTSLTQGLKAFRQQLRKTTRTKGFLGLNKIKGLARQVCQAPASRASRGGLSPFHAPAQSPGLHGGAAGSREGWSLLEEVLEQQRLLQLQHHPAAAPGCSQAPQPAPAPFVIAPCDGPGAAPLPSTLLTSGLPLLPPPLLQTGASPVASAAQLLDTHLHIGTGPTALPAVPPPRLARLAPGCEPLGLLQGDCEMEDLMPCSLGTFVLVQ
T1 sequence (Q9Y2K2 whole entry): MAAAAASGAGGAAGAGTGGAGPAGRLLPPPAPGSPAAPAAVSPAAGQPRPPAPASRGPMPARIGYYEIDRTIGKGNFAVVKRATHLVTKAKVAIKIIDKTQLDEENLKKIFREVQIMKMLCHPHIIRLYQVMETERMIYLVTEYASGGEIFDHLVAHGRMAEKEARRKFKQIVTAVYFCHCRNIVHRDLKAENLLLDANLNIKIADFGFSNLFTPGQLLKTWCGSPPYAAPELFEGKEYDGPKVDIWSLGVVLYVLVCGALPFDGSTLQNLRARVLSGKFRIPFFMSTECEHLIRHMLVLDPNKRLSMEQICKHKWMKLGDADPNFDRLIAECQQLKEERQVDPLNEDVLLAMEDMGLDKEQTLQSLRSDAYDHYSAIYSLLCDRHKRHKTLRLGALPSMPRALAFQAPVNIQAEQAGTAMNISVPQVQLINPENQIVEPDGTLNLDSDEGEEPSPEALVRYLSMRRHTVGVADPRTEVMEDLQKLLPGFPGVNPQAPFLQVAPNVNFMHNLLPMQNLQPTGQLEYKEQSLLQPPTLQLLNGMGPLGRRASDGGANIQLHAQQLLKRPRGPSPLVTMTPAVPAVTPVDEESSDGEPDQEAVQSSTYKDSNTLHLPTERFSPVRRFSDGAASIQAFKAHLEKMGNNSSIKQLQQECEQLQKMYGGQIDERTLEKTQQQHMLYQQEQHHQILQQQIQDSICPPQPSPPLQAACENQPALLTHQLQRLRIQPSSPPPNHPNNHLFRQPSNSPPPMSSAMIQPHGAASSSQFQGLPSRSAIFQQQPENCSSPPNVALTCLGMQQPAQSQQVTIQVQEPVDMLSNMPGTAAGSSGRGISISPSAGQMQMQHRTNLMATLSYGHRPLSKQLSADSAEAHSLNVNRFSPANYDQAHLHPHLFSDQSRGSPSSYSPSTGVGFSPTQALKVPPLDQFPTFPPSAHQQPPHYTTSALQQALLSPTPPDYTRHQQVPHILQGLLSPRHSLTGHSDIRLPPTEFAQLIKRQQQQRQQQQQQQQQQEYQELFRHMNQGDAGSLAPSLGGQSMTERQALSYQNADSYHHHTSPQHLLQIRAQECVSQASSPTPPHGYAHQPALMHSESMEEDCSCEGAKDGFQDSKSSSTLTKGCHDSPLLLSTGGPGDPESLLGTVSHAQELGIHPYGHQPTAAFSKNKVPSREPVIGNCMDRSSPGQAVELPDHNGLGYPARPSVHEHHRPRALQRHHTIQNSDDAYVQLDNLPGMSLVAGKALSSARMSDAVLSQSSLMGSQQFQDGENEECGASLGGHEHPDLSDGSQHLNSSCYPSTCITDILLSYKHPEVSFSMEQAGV
T3 sequence (Q9H0K1 whole entry): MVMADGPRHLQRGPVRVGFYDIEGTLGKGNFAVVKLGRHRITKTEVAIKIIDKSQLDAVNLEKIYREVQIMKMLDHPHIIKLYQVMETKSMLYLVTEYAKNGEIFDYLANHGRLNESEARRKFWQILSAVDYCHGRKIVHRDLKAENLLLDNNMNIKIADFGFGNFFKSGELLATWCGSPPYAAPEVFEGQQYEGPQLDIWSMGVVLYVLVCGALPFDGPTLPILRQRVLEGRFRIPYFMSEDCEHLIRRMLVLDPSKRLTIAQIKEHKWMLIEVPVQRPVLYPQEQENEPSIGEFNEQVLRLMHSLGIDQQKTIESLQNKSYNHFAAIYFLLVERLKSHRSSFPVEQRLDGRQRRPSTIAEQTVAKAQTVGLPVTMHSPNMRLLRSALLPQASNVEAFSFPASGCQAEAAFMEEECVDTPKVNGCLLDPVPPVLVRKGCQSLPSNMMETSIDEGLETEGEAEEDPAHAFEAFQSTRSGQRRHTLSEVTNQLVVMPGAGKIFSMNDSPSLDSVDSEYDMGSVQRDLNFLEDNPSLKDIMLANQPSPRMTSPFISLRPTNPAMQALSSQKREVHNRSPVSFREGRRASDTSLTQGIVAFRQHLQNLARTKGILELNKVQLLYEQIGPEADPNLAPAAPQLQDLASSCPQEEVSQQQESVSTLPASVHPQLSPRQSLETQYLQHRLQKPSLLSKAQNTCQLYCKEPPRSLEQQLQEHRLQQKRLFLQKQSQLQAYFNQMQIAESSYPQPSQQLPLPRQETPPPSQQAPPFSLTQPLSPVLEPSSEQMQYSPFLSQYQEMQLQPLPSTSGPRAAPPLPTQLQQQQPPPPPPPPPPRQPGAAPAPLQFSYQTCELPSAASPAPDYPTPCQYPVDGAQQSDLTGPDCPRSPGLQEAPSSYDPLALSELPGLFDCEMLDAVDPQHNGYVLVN

SMILES | IC50 (SIK3) [nM] | IC50 (SIK1) [nM] | IC50 (SIK2) [nM]
COc1cc(-c2cnc3cc(-c4ccnnc4)ccn23)cc(OC)c1C(=O)NCC(F)(F)F [compound 247, 2,6-dimethoxy-4-(7-pyridazin-4-ylimidazo[1,2-a]pyridin-3-yl)-N-(2,2,2-trifluoroethyl)benzamide] | 0.01 to 10 | 10 to 100 | 10 to 100
COc1cc(-n2cnc3cc(-c4cnn(C)c4)ccc32)cc(OC)c1C(=O)NC1CS(=O)(=O)C1 [compound 64, N-(1,1-dioxothietan-3-yl)-2,6-dimethoxy-4-[5-(1-methylpyrazol-4-yl)benzimidazol-1-yl]benzamide] | 10 to 100 | 100 to 500 | 10 to 100
COc1cc(-n2cnc3cc(-c4cnn(C)c4)ccc32)cc(OC)c1C(=O)N1CCC(OC(F)(F)F)CC1 [compound 198, [2,6-dimethoxy-4-[5-(1-methylpyrazol-4-yl)benzimidazol-1-yl]phenyl]-[4-(trifluoromethoxy)-1-piperidyl]methanone] | 100 to 500 | 100 to 500 | > 500
COc1cc(-n2cnc3cc(-c4cccnc4)ccc32)cc(OC)c1C(=O)NCC(F)(F)F [compound 39, 2,6-dimethoxy-4-[5-(3-pyridyl)benzimidazol-1-yl]-N-(2,2,2-trifluoroethyl)benzamide] | 10 to 100 | 100 to 500 | 10 to 100
COc1cc(-n2cnc3cc(-c4cnn(C)c4)ccc32)cc(OC)c1C(=O)N1CC(C2CCOCC2)C1 [compound 191, [2,6-dimethoxy-4-[5-(1-methylpyrazol-4-yl)benzimidazol-1-yl]phenyl]-(3-tetrahydropyran-4-ylazetidin-1-yl)methanone] | 100 to 500 | 100 to 500 | 100 to 500
CCNC(=O)c1c(OC)cc(-n2cnc3cc(-c4cn(C)nc4C)ccc32)cc1OC [compound 8, 4-[5-(1,3-dimethylpyrazol-4-yl)benzimidazol-1-yl]-N-ethyl-2,6-dimethoxy-benzamide] | 100 to 500 | 100 to 500 | 10 to 100
COc1cc(-n2cnc3cc(-c4cnn(C)c4)ccc32)cc(OC)c1C(=O)N1CCC1C (stereo not drawn) [compound 182, [2,6-dimethoxy-4-[5-(1-methylpyrazol-4-yl)benzimidazol-1-yl]phenyl]-(2-methylazetidin-1-yl)methanone] | > 500 | > 500 | > 500
COc1cc(-n2cnc3cc(-c4cnn(C)c4)ccc32)cc(OC)c1C(=O)N(C)CC#N [compound 74, N-(cyanomethyl)-2,6-dimethoxy-N-methyl-4-[5-(1-methylpyrazol-4-yl)benzimidazol-1-yl]benzamide] | 10 to 100 | 100 to 500 | 100 to 500
COc1cc(-n2cnc3cc(-n4nc(C)cc4C)ccc32)cc(OC)c1C(=O)NCC(F)(F)F [Cpd 165, 4-[5-(3,5-dimethylpyrazol-1-yl)benzimidazol-1-yl]-2,6-dimethoxy-N-(2,2,2-trifluoroethyl)benzamide] | > 500 | > 500 | > 500
COc1cc(-n2cnc3cc(-c4cnn(C)c4)ccc32)cc(OC)c1C(=O)NCC#N [compound 75] | 0.01 to 10 | 10 to 100 | 0.01 to 10
COc1cc(-n2cnc3cc(-c4cnn(CC5CCCO5)c4)ccc32)cc(OC)c1C(=O)NCC(F)(F)F (stereo not drawn) [compound 111, 2,6-dimethoxy-4-[5-[1-(tetrahydrofuran-2-ylmethyl)pyrazol-4-yl]benzimidazol-1-yl]-N-(2,2,2-trifluoroethyl)benzamide] | 0.01 to 10 | 0.01 to 10 | 0.01 to 10
CCn1cc(-c2ccc3c(c2)ncn3-c2cc(OC)c(C(=O)N(C)CC(C)C)c(OC)c2)cn1 [compound 28, 4-[5-(1-ethylpyrazol-4-yl)benzimidazol-1-yl]-N-isobutyl-2,6-dimethoxy-N-methyl-benzamide] | > 500 | > 500 | > 500
